Assay results taken from article PMC3749181, “Rapid Identification of Antifungal Compounds against Exserohilum rostratum Using High Throughput Drug Repurposing Screens” (PLoS ONE, 2013).
pIC50: −log10 of the molar value. Where “and” joins values, the source holds several entries; their conditions need not be identical. Identical values can stand only once. Like-named read-outs stand apart in the source and are kept apart here.

Experiments:
[1] = test system: SH-SY5Y cells; test: SH-SY5Y cytotoxicity counter-screen (ATP content assay); assay type: cell-based, Human; conditions: for SH-SY5Y % Max. Resp.: Table 2, SH-SY5Y, inact. = no significant activity at 46 µM; for cytotoxicity in SH-SY5Y mammalian cells: concentration up to 46 µM; for SH-SY5Y % M. Res.: Inact. = no significant activity at 46 µM
Procedure: Human neuroblastoma SH-SY5Y cell line (Catalog No. CRL-2266) was purchased from ATCC (Manassas, VA). SH-SY5Y cell line was cultured in 175-cm^2 tissue culture flasks (Costar, Cambridge, MA) with 30 ml of growth medium at 37°C in a 5% CO2 humidified atmosphere. Growth medium was made with Dulbecco's Modified Eagle Medium: Nutrient Mixture F-12 with 10% fetal bovine serum (FBS). Growth medium was replaced every other day and cells were passed at 75% confluence.
(§1) The ATPLite assay kit, consisting of luciferase/luciferin and detergent, was used to quantitate cellular ATP levels as a marker for cell viability (Table 1). For assay development, hyphal fragments or conidia in PBS were plated in a seeding density of 3,750, 7,500 and 15,000 cellular particles/well with a final volume of 5 µl/well using the Multidrop-Combi dispenser in white 1536-well plates. Conidia or hyphae fragments were incubated for 24 h at 37°C in a 5% CO2 humidified atmosphere. ATPLite detection reagents were added at 4 µl/well. The assay plates were incubated at room temperature for 15 minutes before reading luminescence intensity on a ViewLux plate reader (Perkin Elmer, Waltham, MA). Conidia suspended in RPMI medium were inoculated at concentrations of 62.5, 125 and 250 conidia/well with a final volume of 5 µl/well in white 1536-well plates. The conidia assay was developed and optimized in the same way as the hyphal assay.
Two small known compound libraries including the LOPAC (1280 compounds) and approved drugs (4096 compounds) were screened in parallel using the above optimized assays for hyphae and conidia in 1536-well plates (Fig. 4). […] A mammalian SH-SY5Y cell line was used in parallel as a counter-screen with the same ATP content assay kit to assess the specificity of these compounds for E. rostratum.

[2] = test system: E. rostratum hyphal fragments; test: colony formation assay of hyphal fragments; assay type: cell-based, Exserohilum rostratum; conditions: 2 times respective IC50, 37°C, 24 h; p<0.01
Procedure: 10 µl of hyphal suspension (processed as described above) was transferred to 1.7 mL microfuge tubes, each containing 28 nM amphotericin B, 242 nM posaconazole, or 10% DMSO in 1 ml PBS. Tubes containing hyphae and drug were incubated at 37°C in a shaking incubator for 24 h, then 200 µl of the hyphae drug suspension was spread on Yeast Extract Peptone Dextrose (YPD) plates for 24 h at 30°C and the number of colony forming units were scored. The experiments were performed in triplicate.
Mixtures were cultured at 37°C in a shaking incubator for 24 h, then the hyphal suspensions were inoculated on Yeast Extract Peptone Dextrose (YPD) plates that were incubated for 1 day. The number of colonies on each YPD plate was counted.

[3] = test system: E. rostratum hyphal fragments; test: hyphal fragment fungicidal ATP content assay (PBS, 1536-well); assay type: cell-based, Exserohilum rostratum; conditions: for pIC50 / Emax: Exserohilum rostratum; for Emax / Hyphae % Max. Resp. / Hyphae % M. Res.: 46 µM Amphotericin B = 100%
Procedure: (§2) Conidia and hyphae of E. rostratum were obtained as described by Richard et al., with the following modifications. Briefly, conidia were harvested from Potato Dextrose Agar (PDA) cultured media with 0.05% Tween 80, and the conidial suspension was filtered using a Cell Strainer (100 µm, BD Falcon REF 352340). After centrifugation at 700g for 10 min, the suspension was decanted and conidia were resuspended at 1×10^5 per ml in RPMI and counted in a hemocytometer. Hyphae were harvested from yeast extract peptone dextrose (YPD) culture media with 0.05% Tween 80. Hyphal fragments were sized by vortexing 15 sec twice with 0.4 mm glassbeads, and the hyphae suspension was filtered by cheese cloth twice. […] To normalize concentrations of hyphal fragments for batch to batch consistency, carbohydrate analysis was performed by a phenol-sulfuric acid method as previously described. The final stock concentration of hyphae was adjusted to 1.0 (OD490) per 100 µl.
as §1
(§3) The LOPAC library (Sigma-Aldrich) has been extensively used for HTS assay validations, [18]. The NIH Chemical Genomics Center Pharmaceutical (NPC) collection was constructed in-house through a combined effort of compound purchasing and custom synthesis and recently expanded to 4096 compounds. […] 2.5 µl/well PBS was dispensed into 1536-well plates using a Multidrop-Combi dispenser. Compound in DMSO solution was transferred in a volume of 23 nl/well using a NX-TR pintool station (WAKO Scientific Solutions, San Diego, CA). This additional PBS step for compound addition was designed to prevent the potential fungal contamination of compound libraries. The hyphal fragments in PBS were then added at 2.5 µl/well for a final seeding density of 15,000 hyphal fragments/well using the Multidrop-Combi dispenser. The final compound concentration was 46 µM in the primary screen. The assay plates were incubated for 24 h at 30°C before the detection of cellular viability with the ATP content assay. Screen of conidia was performed in a similar way except that PBS was replaced with RPMI medium and conidia were plated for a final seeding density of 250 conidia/well.
(§4) The primary screen data and curve fitting were analyzed using software developed internally at the NIH Chemical Genomics Center (NCGC). Total signals for cellular viability (100% cellular viability) were calculated from the wells with DMSO solvent and the complete cell killing (0% cellular viability) was calculated from 46 µM amphotericin B treated wells. […] All values were expressed as the mean +/− SD (n≥3).

[4] = test system: E. rostratum conidia; test: conidia growth inhibition ATP content assay (RPMI, 1536-well); assay type: cell-based, Exserohilum rostratum; conditions: for Emax / Conidia % Max. Resp. / Conidia % M. Res.: 46 µM Amphotericin B = 100%; for Conidia IC50: Inact. = no significant activity at the highest compound concentration (46 µM)
Procedure: as §2, §1, §3, §4

[5] = test system: E. rostratum; parameters: method as in earlier work; conditions: filamentous fungi M38-A2, this isolate; cited from earlier work
[6] = Figure 5, read-out: IC50 Hyphae
[7] = Table 2, inact. = no significant activity in the primary screen, read-out: Hyphae % Max. Resp.
[8] = Table 2, 24 h, inact. = no significant activity in the primary screen, read-out: Hyphae IC50
[9] = Exserohilum rostratum, 24 h, Table 2, 24 h, inact. = no significant activity at the highest compound concentration (46 µM), read-out: Conidia IC50
[10] = Exserohilum rostratum, Figure 5, read-out: IC50 Conidia
[11] = Exserohilum rostratum, Table 2, inact. = no significant activity at 46 µM, read-out: Conidia % Max. Resp.
[12] = Table S1, 46 µM Amphotericin B = 100%
[13] = Table S1, Inact. = no significant activity at the highest compound concentration (46 µM)
[14] = Table S1, Inact. = no significant activity in the primary screen, read-out: Hyphae % M. Res.
[15] = Exserohilum rostratum, Table S1, Inact. = no significant activity at 46 µM, read-out: Conidia % M. Res.
[16] = Table 2, inact. = no significant activity in the primary screen
[17] = Table 2, 24 h, inact. = no significant activity in the primary screen
[18] = Table 2, inact. = no significant activity at 46 µM
[19] = Table S1, Inact. = no significant activity in the primary screen
[20] = Table S1, Inact. = no significant activity at 46 µM

Molecule	SH-SY5Y % Max. Resp. ([1]; 46 µM Amphotericin B = 100%)	SH-SY5Y % Max. Resp. [1]	hyphae-derived colony forming units (CFU) compared to DMSO control [2]	Emax [3, 7] [%]	pIC50 [3, 8]	pIC50 [4, 9]	Emax [4, 11] [%]	further results
CC[C@@H]([C@H](C)O)n1ncn(-c2ccc(N3CCN(c4ccc(OC[C@@H]5CO[C@@](Cn6cncn6)(c6ccc(F)cc6F)C5)cc4)CC3)cc2)c1=O [Posaconazole]	inact.	inact.	significantly reduced	78	6.92	7.01	106	cytotoxicity in SH-SY5Y mammalian cells [1]: no significant cytotoxicity; pIC50 [3, 6]: 6.79; pIC50 [4, 10]: 7.10; value determined from the microdilution method [5]: 0.25 µg/ml and 360 nM
C=CC[C@@H]1/C=C(\C)C[C@H](C)C[C@H](OC)[C@H]2O[C@@](O)(C(=O)C(=O)N3CCCC[C@H]3C(=O)O[C@H](/C(C)=C/[C@@H]3CC[C@@H](O)[C@H](OC)C3)[C@H](C)[C@@H](O)CC1=O)[C@H](C)C[C@@H]2OC [Tacrolimus]	inact.	inact.	significantly reduced	83	7.49	7.62	101	cytotoxicity in SH-SY5Y mammalian cells [1]: no significant cytotoxicity; pIC50 [3, 6]: 7.51; pIC50 [4, 10]: 7.44
N#C/C(=C1/SCC(c2ccccc2Cl)S1)n1ccnc1 (stereo not shown) [Lanoconazole]	inact.	inact.	significantly reduced	65	6.69	6.42	103	cytotoxicity in SH-SY5Y mammalian cells [1]: no significant cytotoxicity; pIC50 [3, 6]: 6.34; pIC50 [4, 10]: 6.09
N#C/C(=C1/SC[C@@H](c2ccc(Cl)cc2Cl)S1)n1ccnc1 [Luliconazole]	inact.	inact.	significantly reduced	82	5.19	5.36	100	SH-SY5Y % M. Res. [1, 12]: Inact.; SH-SY5Y IC50 [1, 13]: Inact.; Emax [3, 14]: 82%; Emax [4, 15]: 100%
CCC(C)n1ncn(-c2ccc(N3CCN(c4ccc(OCC5COC(Cn6cncn6)(c6ccc(Cl)cc6Cl)O5)cc4)CC3)cc2)c1=O (stereo not shown) [Itraconazole]	inact.	inact.	significantly reduced	80	5.66	5.91	100	cytotoxicity in SH-SY5Y mammalian cells [1]: no significant cytotoxicity; pIC50 [3, 6]: 5.71; pIC50 [4, 10]: 5.90
Bleomycin sulfate	inact.	inact.						Hyphae % Max. Resp. [3, 16]: inact.; Hyphae IC50 [3, 17]: inact.; Conidia % Max. Resp. [4, 18]: 98%; pIC50 ([4]; read-out: Conidia IC50): 5.91
O=[N+]([O-])c1c(Cl)cccc1-c1c[nH]cc1Cl [Pyrrolnitrin]	inact.	inact.		80	5.25	6.39	101	
Phenylmercuric borate	99%	0.417%						Hyphae % Max. Resp. [3, 16]: inact.; Hyphae IC50 [3, 17]: inact.; Conidia % Max. Resp. [4, 18]: 103%; pIC50 ([4]; Table 2, 24 h, inact. = no significant activity at the highest compound concentration (46 µM), read-out: Conidia IC50): 6.83
Cc1cccc(N(C)C(=S)Oc2ccc3c(c2)CCC3)c1 [Tolindate]								SH-SY5Y % M. Res. [1, 12]: Inact.; SH-SY5Y IC50 [1, 13]: Inact.; Hyphae % M. Res. [3, 19]: Inact.; Hyphae IC50 [3, 19]: Inact.; Conidia % M. Res. [4, 20]: Inact.; Conidia IC50 ([4]; Table S1): Inact.
COCc1c(C(C)C)nc(C(C)C)c(/C=C/[C@@H](O)C[C@@H](O)CC(=O)O)c1-c1ccc(F)cc1 [Cerivastatin sodium]	inact.	inact.		79	5.79	6.33	101	
Oc1c(Cl)cc(Cl)cc1Sc1cc(Cl)cc(Cl)c1O [Bithionol]	inact.	inact.				5.73	100	Hyphae % Max. Resp. [3, 16]: inact.; Hyphae IC50 [3, 17]: inact.
CN(C)C(=S)SC(=S)N(C)C [Tetramethylthiuram monosulfide]								SH-SY5Y IC50 [1]: Inact.; SH-SY5Y % M. Res. [1, 12]: Inact.; Emax [3, 14]: 59%; pIC50 ([3]; Table S1, Inact. = no significant activity in the primary screen, read-out: Hyphae IC50): 4.17; pIC50 ([4]; Exserohilum rostratum, read-out: Conidia IC50): 5.47; Emax [4, 15]: 23%
CC(C)(C)c1cc(C=C(C#N)C#N)cc(C(C)(C)C)c1O [Tyrphostin A9]	61%	18.6%				5.70	100	Hyphae % Max. Resp. [3, 16]: inact.; Hyphae IC50 [3, 17]: inact.
COC1=CC(=O)C[C@@H](C)[C@]12Oc1c(Cl)c(OC)cc(OC)c1C2=O [Griseofulvin]								SH-SY5Y % M. Res. [1, 12]: Inact.; SH-SY5Y IC50 [1, 13]: Inact.; Hyphae % M. Res. [3, 19]: Inact.; Hyphae IC50 [3, 19]: Inact.; Conidia % M. Res. [4, 20]: Inact.; Conidia IC50 ([4]; Table S1): Inact.
